# Measured values reported in patent US11351168B1 (Celgene CAR LLC, priority 2008, dated 2022).
# Tested on: BTK signaling in Ramos cells
# Assay: BTK Ramos cellular assay (phosphorylation of BTK substrate PLCγ2)
# Format: cell-based, human
# Conditions: Homo sapiens, 1 hour compound, anti-IgM stimulation, read-out: BTK Inhibition (Ramos cellular)
# Procedure: Compounds I-2, I-4, and I-7 were assayed in Ramos human Burkitt lymphoma cells. Ramos cells were grown in suspension in T225 flasks, spun down, resuspended in 50 ml serum-free media and incubated for 1 hour. Compound was added to Ramos cells in serum free media to a final concentration of 1, 0.1, 0.01, or 0.001 μM. Ramos cells were incubated with compound for 1 hour, washed again and resuspended in 100 ul serum-free media. Cells were then stimulated with 1 μg of goat F(ab′)2 Anti-Human IgM and incubated on ice for 10 minutes to activate B cell receptor signaling pathways. After 10 minutes, the cells were washed once with PBS and then lysed on ice with Invitrogen Cell Extraction buffer. 16 μg total protein from lysates were loaded on gel and blots were probed for phosphorylation of the BTK substrate PLCγ2.
row,SMILES,IC50 [nM]
1,"C=CC(=O)Nc1cccc(Oc2nc(Nc3cccc(OC)c3)ncc2C(N)=O)c1 [Compound I-178, 4-(3-acrylamidophenoxy)-2-(3-methoxyphenylamino)pyrimidine-5-carboxylic acid amide]",10 to 100
2,"C=CC(=O)Nc1cccc(Nc2nc(Nc3ccc(OC)nc3)ncc2C(N)=O)c1 [Compound I-209, 4-(3-acrylamidophenylamino)-2-(6-methoxypyridin-3-ylamino)pyrimidine-5-carboxamide]",10 to 100
3,"C=CC(=O)N1CCC[C@@H](Nc2nc(Nc3cccc(Cl)c3)ncc2F)C1 [Compound I-147, (R)-1-(3-(2-(3-chlorophenylamino)-5-fluoropyrimidin-4-ylamino)piperidin-1-yl)prop-2-en-1-one]",10 to 100
4,"C=CC(=O)Nc1cccc(Nc2nc(Nc3ccc(OCCO)nc3)ncc2C(C)=O)c1 [Compound I-121, N-(3-{5-Acetyl-2-[6-(2-hydroxy-ethoxy)-pyridin-3-ylamino]-pyrimidin-4-ylamino}-phenyl)-acrylamide]",10 to 100
5,"C=CC(=O)Nc1cccc(Oc2nc(Nc3ccc(OC)nc3)ncc2C(=O)NC2CC2)c1 [Compound I-176, 4-(3-acrylamidophenoxy)-2-(6-methoxypyridin-3-ylamino)-pyrimidine-5-carboxylic acid cyclopropylamide]",100 to 1000
6,"C=CC(=O)Nc1cccc(Nc2nc(Nc3ccc(OCCCNC(=O)OC(C)(C)C)cc3)ncc2F)c1 [Compound I-198, tert-butyl 3-(4-(4-(3-acrylamidophenylamino)-5-fluoropyrimidin-2-ylamino)phenoxy)propylcarbamate]",< 10
7,"C=CC(=O)Nc1cccc(Nc2nc(Nc3cccc(OCCCNC(=O)OC(C)(C)C)c3)ncc2C)c1 [Compound I-45, tert-butyl 3-(3-(4-(3-acrylamidophenylamino)-5-methylpyrimidin-2-ylamino)phenoxy)propylcarbamate]",< 10
8,"C=CC(=O)N1CCOc2ccc(Nc3nc(Nc4ccc(N5CCCC5=O)cc4)ncc3C(C)=O)cc21 [Compound I-152, 1-{4-[5-Acetyl-4-(4-acryloyl-3,4-dihydro-2H-benzo[1,4]oxazin-6-ylamino)-pyrimidin-2-ylamino]-phenyl}-pyrrolidin-2-one]",10 to 100
9,"C=CC(=O)N1CCOc2ccc(Nc3nc(Nc4ccc(OCCO)nc4)ncc3C(C)=O)cc21 [Compound I-128, 1-(6-{5-Acetyl-2-[6-(2-hydroxy-ethoxy)-pyridin-3-ylamino]-pyrimidin-4-ylamino}-2,3-dihydro-benzo[1,4]oxazin-4-yl)-propenone]",10 to 100
10,"C=CC(=O)Nc1cccc(Nc2nc(Nc3ccc(OC)nc3)ncc2C2CC2)c1 [Compound I-167, N-(3-(5-cyclopropyl-2-(6-methoxypyridin-3-ylamino)pyrimidin-4-ylamino)phenyl)acrylamide]",10 to 100
11,"C=CC(=O)Nc1cc(Nc2nc(Nc3ccc(OC(C)C)nc3)ncc2F)ccc1Cl [Compound I-107, N-(2-chloro-5-(5-fluoro-2-(6-isopropoxypyridin-3-ylamino)pyrimidin-4-ylamino)phenyl)acrylamide]",10 to 100
12,"C=CC(=O)N1CCOc2ccc(Nc3nc(Nc4ccc(N5CCOCC5)cc4)ncc3C(C)=O)cc21 [Compound I-169, 1-{6-[5-Acetyl-2-(4-morpholin-4-yl-phenylamino)-pyrimidin-4-ylamino]-2,3-dihydro-benzo[1,4]oxazin-4-yl}-propenone]",< 10
13,"C=CC(=O)Nc1cc(Nc2nc(Nc3ccc(OCCOC)cc3)ncc2F)ccc1F [Compound I-87, N-(2-fluoro-5-(5-fluoro-2-(4-(2-methoxyethoxy)phenylamino)pyrimidin-4-ylamino)phenyl)acrylamide]",< 10
14,"C=CC(=O)N1CCOc2ccc(Nc3nc(Nc4ccc(OCCOC)cc4)ncc3C(C)=O)cc21 [Compound I-150, 1-(6-{5-Acetyl-2-[4-(2-methoxy-ethoxy)-phenylamino]-pyrimidin-4-ylamino}-2,3-dihydro-benzo[1,4]oxazin-4-yl)-propenone]",10 to 100
15,C=CC(=O)Nc1cccc(Oc2nc(Nc3ccc(OC)nc3)ncc2F)c1 [Compound I-217],< 10
16,"C=CC(=O)Nc1cccc(Oc2nc(Nc3cccc(OC)c3)ncc2C(=O)NC2CC2)c1 [Compound I-177, 4-(3-acrylamidophenoxy)-2-(3-methoxyphenylamino)-pyrimidine-5-carboxylic acid cyclopropylamide]",100 to 1000
17,"C=CC(=O)Nc1cccc(Nc2nc(Nc3ccc(OC4CCC4)nc3)ncc2F)c1 [Compound I-79, N-(3-(2-(6-cyclobutoxypyridin-3-ylamino)-5-fluoropyrimidin-4-ylamino)phenyl)acrylamide]",< 10

# Results, then the compound that gave them:
row,IC50 [nM],SMILES
1,10 to 100,"C=CC(=O)Nc1cccc(Nc2nc(Nc3ccc4c(c3)N(C)CCO4)ncc2F)c1 [Compound I-126, N-(3-(2-(4-methyl-2,3-dihydrobenzo[1,4]oxazin-6-yl)amino-5-fluoropyrimidin-4-ylamino)phenyl)acrylamide]"
2,10 to 100,"C=CC(=O)Nc1cccc(Nc2ncc(F)c(Nc3cccc(C)c3)n2)c1 [Compound I-3, N-(3-(5-fluoro-4-(m-tolylamino)pyrimidin-2-ylamino)phenyl) acrylamide]"
3,< 10,"C=CC(=O)Nc1cccc(Nc2nc(Nc3cccc(S(N)(=O)=O)c3)ncc2C)c1 [Compound I-33, N-(3-(5-methyl-2-(3-sulfamoylphenylamino)pyrimidin-4-ylamino)phenyl)acrylamide]"
4,10 to 100,"C=CC(=O)Nc1cccc(Nc2nc(Nc3ccc(OC)nc3)ncc2OC)c1 [Compound I-192, N-(3-(5-methoxy-2-(6-methoxypyridin-3-ylamino)pyrimidin-4-ylamino)phenyl)acrylamide]"
5,< 10,"C=CC(=O)Nc1cccc(Nc2nc(Nc3cccc(OCCCn4ccnc4)c3)ncc2F)c1 [Compound I-204, N-(3-(2-(3-(3-(1H-imidazol-1-yl)propoxy)phenylamino)-5-fluoropyrimidin-4-ylamino)phenyl)acrylamide]"
6,100 to 1000,"C=CC(=O)Nc1ccc(C)c(Nc2ncc(C)c(Nc3cccc(C)c3)n2)c1 [Compound I-8, N-(4-methyl-3-(5-methyl-4-(m-tolylamino)pyrimidin-2-ylamino)phenyl)acrylamide]"
7,10 to 100,"C=CC(=O)Nc1cccc(Nc2nc(Nc3cccc(OCC(=O)N4CCOCC4)c3)ncc2F)c1 [Compound I-110, N-(3-(5-fluoro-2-(3-(2-morpholino-2-oxoethoxy)phenylamino)pyrimidin-4-ylamino)phenyl)acrylamide]"
8,< 10,"[2H]C([2H])([2H])Oc1ccc(Nc2ncc(F)c(Nc3cccc(NC(=O)C=C)c3)n2)cn1 [Compound I-95, N-(3-(5-fluoro-2-(6-(trideutereomethoxy)pyridine-3-ylamino)pyrimidin-4-ylamino)phenyl)acrylamide]"
9,< 10,"C=CC(=O)Nc1cccc(Nc2nc(Nc3cccc(OCCO)c3)ncc2F)c1 [Compound I-105, N-(3-(5-fluoro-2-(3-(2-hydroxyethoxy)phenylamino)pyrimidin-4-ylamino)phenyl)acrylamide]"
10,10 to 100,"C=CC(=O)Nc1cccc(Nc2nc(Nc3cccc(OC)c3)ncc2OC)c1 [Compound I-158, N-(3-(5-methoxy-2-(3-methoxyphenylamino)pyrimidin-4-ylamino)phenyl)acrylamide]"
11,< 10,"C=CC(=O)Nc1cccc(Nc2nc(Nc3cccc(OCCCS(C)(=O)=O)c3)ncc2F)c1 [Compound I-138, 4-(3-acrylamidophenylamino)-5-fluoro-2-(3-(3-(methylsulfonyl)propoxy)phenylamino)-pyrimidine]"
12,10 to 100,"C=CC(=O)Nc1cccc(Nc2nc(Nc3cccc(S(N)(=O)=O)c3)ncc2F)c1 [Compound I-160, N-(3-(5-fluoro-2-(3-sulfamoylphenylamino)pyrimidin-4-ylamino)phenyl)acrylamide]"
13,< 10,"C=CC(=O)Nc1cccc(Nc2nc(Nc3ccc(OCCCS(C)(=O)=O)c(F)c3)ncc2F)c1 [Compound I-318, N-(3-(5-fluoro-2-(3-fluoro-4-(3-(methylsulfonyl)propoxy)phenylamino)pyrimidin-4-ylamino)phenyl)acrylamide]"
14,< 10,"C=CC(=O)Nc1cccc(Nc2nc(Nc3cccc(OCC(C)(C)O)c3)ncc2F)c1 [Compound I-118, N-(3-(5-fluoro-2-(3-(2-hydroxy-2-methylpropoxy)phenylamino)pyrimidin-4-ylamino)phenyl)acrylamide]"
15,< 10,"C=CC(=O)Nc1cccc(Nc2nc(Nc3cccc(OC)c3)ncc2C(N)=O)c1 [Compound I-210, 4-(3-acrylamidophenylamino)-2-(3-methoxyphenylamino)pyrimidine-5-carboxamide]"
16,< 10,"C=CC(=O)Nc1cccc(Nc2nc(Nc3ccc(OCC4CCN(C)CC4)nc3)ncc2F)c1 [Compound I-78, N-(3-(5-fluoro-2-(6-((1-methylpiperidin-4-yl)methoxy)pyridin-3-ylamino)pyrimidin-4-ylamino)phenyl)acrylamide]"
17,< 10,C=CC(=O)Nc1cccc(Nc2nc(Nc3ccc4[nH]ncc4c3)ncc2F)c1 [Compound I-156]
18,< 10,"C=CC(=O)Nc1cccc(Nc2nc(Nc3ccc(OCCOC)nc3)ncc2F)c1 [Compound I-103, N-(3-(5-fluoro-2-(6-(2-methoxyethoxy)pyridine-3-ylamino)pyrimidin-4-ylamino)phenyl)acrylamide]"
19,< 10,"C=CC(=O)Nc1cccc(Nc2nc(Nc3ccc(O[C@@H]4CCOC4)c(F)c3)ncc2F)c1 [Compound I-316, (R)—N-(3-(5-fluoro-2-(3-fluoro-4-(tetrahydrofuran-3-yloxy)phenylamino)pyrimidin-4-ylamino)phenyl)acrylamide]"
